The supplement of paper PMC6470124

Columns and labels:
[1] = LC retention time (Atlantis T3, 5-95% MeOH gradient, 0.1% formic acid); higher = more retained / less polar
Method in brief: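 Retention times refer to reference standards measured by liquid chromatography with high-resolution tandem mass spectrometry. Separation was on an Atlantis T3 C18 column (3 × 150 mm, 3 μm) at 0.3 mL/min with a 5 to 95% methanol gradient over 17.5 min, both solvents carrying 0.1% formic acid. Positive and negative electrospray were run separately on a QExactive Plus, and TraceFinder peak integration (5 ppm tolerance, at least three points per peak) was reviewed by hand.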

[2] = absolute recovery over vacuum-assisted evaporative concentration; higher = better recovery; conditions: enrichment method: VEC
Method in brief: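 Standards were spiked into water samples before concentration, after concentration or not at all; volumes were 6 mL influent, 15 mL effluent and 60 mL surface or nanopure water. Spiking levels were 200 ng/L for nanopure and surface water and 1000 ng/L for wastewater, adjusted by class and compound. After evaporation at 55 °C and 20 mbar to about 0.3 mL, samples were brought to 0.4 mL, centrifuged, given internal standards and analysed by LC-HRMS/MS. Absolute recovery equals (response ratio pre − unspiked)/(post − unspiked) × 100, based on averages of ≥ 2 replicates.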

[3] = absolute recovery over mixed-bed multilayer solid-phase extraction; higher = better recovery; conditions: enrichment method: SPE
Method in brief: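 A three-layer mixed-bed cartridge was loaded with 100–250 mL of wastewater (adjusted to pH 6.5, glass-fibre filtered) or 1000 mL of unfiltered nanopure water, then eluted with basic and subsequently acidic ethyl acetate/methanol. Standards were introduced pre-extraction, post-extraction, or not at all, at 200 ng/L for water and 1000 ng/L for wastewater, except for certain classes. Once internal standards had been added, both ionisation modes were run by liquid chromatography with high-resolution tandem mass spectrometry. Absolute recovery was derived from background-corrected response ratios of pre- against post-spiked samples, averaged over at least two replicates.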

Row | LC retention time [1] | absolute recovery ([2]; wastewater effluent) | absolute recovery ([2]; wastewater influent) | absolute recovery ([3]; nanopure water) | absolute recovery ([3]; surface water) | absolute recovery ([3]; wastewater effluent) | absolute recovery ([3]; wastewater influent) | SMILES
1 | 14.6 min | 105% | 112% | 71.9% | 76.1% | 72.9% | 71.4% | CC([NH3+])C12CC3CC(CC(C3)C1)C2 (stereo not drawn) [Rimantadin]
2 | 14.6 min | 103% | 96.1% | 97.1% | 93.4% | 93.6% | 94.2% | CCCCc1[nH+]cc(C=C(Cc2cccs2)C(=O)[O-])n1Cc1ccc(C(=O)[O-])cc1 [Eprosartan]
3 | 10.2 min | 104% | 100% | 96.7% | 98.2% | 89.1% | 91.7% | NS(=O)(=O)c1cc2c(cc1Cl)NCNS2(=O)=O [Hydrochlorothiazid]
4 | 16.5 min | 108% | 132% | 107% | 101% | 99.8% | 96.3% | Cc1ccc(NC=O)c(C)c1 [2-4-dimethylphenylformamid]
5 | 16.3 min | 106% | 115% | 107% | 100% | 101% | 79% | CSc1nc(N)nc(NC(C)(C)C)n1 [Irgarol-descyclopropyl]
6 | 17.9 min | 93.4% | 71.9% | 88.6% | 83.9% | 83.3% | 84.7% | CCCCOc1ccc(CC(=O)NO)cc1 [Bufexamac]
7 | 10.4 min | 93.8% | 96.6% | 95.5% | 80.7% | 80.1% | 84.8% | CC(C)c1ccc(N)cc1 [4-Isopropylanilin]
8 | 21.4 min | 112% | 109% | 89.4% | 84% | 96.3% | 96.4% | CC(C)N(C(=O)CS(=O)(=O)[O-])c1ccc(F)cc1 [Flufenacet-ESA]
9 | 17 min | 98.4% | 112% | 90.8% |  |  |  | O=C1NC(=O)C(c2ccccc2)(c2ccccc2)N1 [Phenytoin]
10 | 18.4 min | 93.2% | 86.2% | 86.9% | 89.1% | 83.2% | 96.5% | CCN(CC)C(=O)c1cccc(C)c1 [N-N-diethyl-3-methylbenzamid (=DEET)]
11 | 8.73 min | 105% | 102% | 92.8% | 94.1% | 92.8% | 93.2% | N#CC1CCCN1C(=O)C[NH2+]C12CC3CC(CC(O)(C3)C1)C2 (stereo not drawn) [Vildagliptin]
12 | 20.8 min |  | 98.5% | 102% |  |  |  | O=C([O-])Cc1ccccc1Nc1c(Cl)cccc1Cl [Diclofenac]
13 | 13.1 min | 103% | 101% | 84.8% | 88.8% | 88.4% | 107% | NS(=O)(=O)Cc1noc2ccccc12 [Zonisamide]
14 | 8.64 min | 107% | 103% | 92.1% | 92.6% | 87.4% | 90.6% | CC(C)[NH2+]CC(O)COc1ccc(CC(N)=O)cc1 (stereo not drawn) [Atenolol]
15 | 6.89 min | 94.9% | 141% | 109% | 34.2% | 90.9% | 100% | Cc1cncc(C(=O)[O-])c1 [5-Methylpyridine-3-carboxylic-acid]
16 | 15.6 min | 91.2% | 96.4% | 94.5% |  |  |  | CC(C)(C)c1n[nH]c(=O)n(N)c1=O [Metribuzin-Diketo (=DK)]
17 | 14.2 min | 105% | 105% | 100% | 92.8% | 96.9% | 96.1% | OC(Cn1cncn1)(Cn1cncn1)c1ccc(F)cc1F [Fluconazol]
18 | 16.8 min | 97% | 106% | 93.9% | 96.8% | 92.6% | 88% | NC1=C(Cl)C(=O)c2ccccc2C1=O [Quinoclamine]
19 | 11.2 min | 105% | 105% | 99.2% | 95.3% | 93.2% | 93.4% | CC[N+]1([O-])CCCC1CNC(=O)c1cc(S(=O)(=O)CC)c(N)cc1OC (stereo not drawn) [Amisulpride-N-Oxide]
20 | 16.2 min | 92% | 136% | 99.8% | 81.6% | 93% |  | CCCCOc1cc(C(=O)NCC[NH+](CC)CC)c2ccccc2n1 [Dibucaine]
21 | 8.81 min | 102% | 98.3% | 68.2% | 73.1% | 66.4% | 56.8% | CC(=O)N(CC(O)CO)c1c(I)c(C(=O)NCC(O)CO)c(I)c(C(=O)NCC(O)CO)c1I (stereo not drawn) [Iohexol]
22 | 8.92 min | 109% | 108% | 73.5% | 67.8% | 66.5% | 52.4% | CN(C(=O)CO)c1c(I)c(C(=O)NCC(O)CO)c(I)c(C(=O)NCC(O)CO)c1I (stereo not drawn) [Iomeprol]
23 | 17.2 min | 99.5% | 104% | 94.7% | 98% | 91.7% | 96.1% | Cc1ccc(NS(=O)(=O)N(C)C)cc1 [N-N-dimethyl-N-(4-methylphenyl)-sulfamide]
24 | 18.1 min | 97.4% | 92.2% | 97.4% | 81.6% | 79% | 87% | CC12CCC3=C4CCC(=O)C=C4CCC3C1CCC2(O)CC#N (stereo not drawn) [Dienogest]

Row | SMILES | LC retention time [1] | absolute recovery ([2]; wastewater effluent) | absolute recovery ([2]; wastewater influent) | absolute recovery ([3]; nanopure water) | absolute recovery ([3]; surface water) | absolute recovery ([3]; wastewater effluent) | absolute recovery ([3]; wastewater influent)
25 | C=C1CC2C(CCC3(C)C(=O)CCC23)C2(C)C=CC(=O)C=C12 (stereo not drawn) [Exemestan] | 19.6 min | 100% | 71.7% | 91.6% | 96% | 93.2% | 98.3%
26 | COC=C(C(=O)OC)c1ccccc1COc1cccc(C(F)(F)F)n1 [Picoxystrobin] | 20.3 min | 94.2% | 121% | 94.1% | 94.9% | 99.7% | 81.3%
27 | Cc1nnc(-c2ccccc2)c(=O)n1N [Metamitron] | 14.3 min | 106% | 98.5% | 97.1% |  | 95.8% | 97.5%
28 | CCNc1nc(Cl)nc(NC(C)(C)C)n1 [Terbutylazin] | 19.7 min | 95% | 91.9% | 94.9% | 95% | 93.8% | 93.4%
29 | COc1cccc(C2(O)CCCCC2C[NH+](C)C)c1 (stereo not drawn) [Tramadol] | 12.2 min | 82.8% | 144% | 94.2% | 85.7% | 92% | 91.6%
30 | CC1(C)CON(Cc2ccccc2Cl)C1=O [Clomazon] | 19 min | 80.3% | 78% |  | 92.1% | 82.7% | 87.1%
31 | CN1C(=O)CN=C(c2ccccc2)c2cc(Cl)ccc21 [Diazepam] | 19.5 min | 105% | 99.2% | 97.6% | 94.9% | 93.6% | 95.7%
32 | CC(C)c1ccc(NC(=O)N(C)C)cc1 [Isoproturon] | 18.5 min | 102% | 103% | 98.5% | 97.4% | 97% | 92.5%
33 | CS(=O)(=O)c1ccc(C(=O)[C-]2C(=O)CCCC2=O)c(Cl)c1COCC(F)(F)F [Tembotrione] | 18.9 min | 104% | 116% | 91.7% | 89.4% | 90.9% | 91.3%
34 | COc1ccc2c3c1OC1C(O)C=CC4C(C2)[NH+](C)CCC341 (stereo not drawn) [Codein] | 9.16 min | 104% | 102% | 90.2% | 92.6% | 91.7% | 93%
35 | O=[N+]([O-])C(Br)(CO)CO [Bronopol] | 9.24 min | 52.8% |  | 13.9% | 6.4% | 7% | 7.8%
36 | CC([NH2+]C(C)(C)C)C(=O)c1cccc(Cl)c1 (stereo not drawn) [Bupropion] | 13.5 min | 51.1% | 31.5% | 79.1% | 78% | 74.3% | 78.3%
37 | COc1nc(C)nc(NC(=O)[N-]S(=O)(=O)c2ccccc2CCC(F)(F)F)n1 [Prosulfuron] | 19.3 min | 108% | 102% | 106% | 113% | 104% | 102%
38 | CCC[NH+](CC)CC1COC2(CCC(C(C)(C)C)CC2)O1 (stereo not drawn) [Spiroxamin] | 16.9 min | 91.4% | 66.6% | 83% | 102% | 90.3% | 71.8%
39 | OC(Cc1ccccc1Cl)(Cn1[nH]cnc1=S)C1(Cl)CC1 (stereo not drawn) [Prothioconazole] | 21.2 min | 96.6% | 39.8% |  | 94.5% | 41.8% | 14.7%
